Data set [1] concerns the target T1, trypsin from bovine pancreas (Bos taurus, UniProt P00760).
T1 sequence (P00760 24-246): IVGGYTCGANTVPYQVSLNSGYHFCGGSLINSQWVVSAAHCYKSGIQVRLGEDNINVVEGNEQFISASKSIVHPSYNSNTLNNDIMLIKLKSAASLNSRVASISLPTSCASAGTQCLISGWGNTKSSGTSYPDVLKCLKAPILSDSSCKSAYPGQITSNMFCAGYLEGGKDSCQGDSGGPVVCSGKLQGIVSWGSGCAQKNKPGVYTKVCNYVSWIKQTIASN
Briefly: In vitro trypsin conversion of prodrugs to hydromorphone and inhibition by trypsin inhibitor.
Experimental: The reactions were conducted at 37° C. for 24 hr. Samples were collected at specified time points, transferred into 0.5% formic acid in acetonitrile to stop trypsin activity and stored at less than −70° C. until analysis by LC-MS/MS.
The results are expressed as half-life of prodrug when exposed to trypsin (i.e., Prodrug trypsin half-life) in hours and rate of formation of HM per unit of trypsin.

The conditions of data set [2]: for Cmax of HM in rat plasma / Tmax of HM in rat plasma: PC-4 20 mg/kg PO.
For data set [3] the following is noted: PC-4 20 mg/kg PO.
A short description of data set [4]: Oral administration of Compound PC-2 and SBTI to rats: hydromorphone in plasma. Particulars: for Cmax of hydromorphone in rat plasma: PC-2 20 mg/kg PO.
For data set [5] the following is noted: for Cmax of hydromorphone in rat plasma / Tmax of hydromorphone in rat plasma: PC-3 20 mg/kg PO.
The conditions of data set [6]: PC-3 20 mg/kg PO.
Data set [7] in a line: Oral administration of Compound PC-1 and SBTI trypsin inhibitor to rats: hydromorphone in blood. As to conditions: for Cmax of hydromorphone in rat blood: PC-1 20 mg/kg PO.
The nature of data set [8]: Oral administration of Compound PC-1 and BBSI inhibitor to rats: hydromorphone in blood. As to conditions: PC-1 20 mg/kg PO.
Data set [9] in a line: Oral administration of Compound PC-1 and SBTI in the presence of ovalbumin to rats: hydromorphone in plasma. Particulars: for Cmax of hydromorphone in rat plasma: PC-1 20 mg/kg PO; for plasma Tmax of hydromorphone: rats; for Effect on Compound PC-1's ability to release hydromorphone: rats PO, PC-1 20 mg/kg with ovalbumin and/or SBTI. Here is the method:
In an effort to understand the role of SBTI, ovalbumin was used as a non-trypsin inhibitor protein control. Albumin from chicken egg white (ovalbumin) (Catalog No. A7641, Grade VII, lyophilized powder, Sigma-Aldrich) was dissolved in saline.

Data set [10] has as its target T2, trypsin (Bos taurus, UniProt P00760).
T2 sequence (P00760 24-246): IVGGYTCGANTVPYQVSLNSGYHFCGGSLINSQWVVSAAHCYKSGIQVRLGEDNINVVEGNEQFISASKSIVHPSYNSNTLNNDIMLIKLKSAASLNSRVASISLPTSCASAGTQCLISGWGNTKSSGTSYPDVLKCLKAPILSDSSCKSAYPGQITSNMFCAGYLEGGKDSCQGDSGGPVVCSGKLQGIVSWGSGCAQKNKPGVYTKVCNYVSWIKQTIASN
Briefly: In vitro IC50, modified trypsin assay. In kind it is biochemical.

Setting [11] is: No trypsin inhibitor, 0.761 mM prodrug, 37° C., Tris pH 8.

Values joined by “and” are separate entries in the source; they are usually repeats but may differ in a detail not shown here. Equal entries are not always repeated. “Also recorded” adds a separate entry of the source. Where two headings read alike, the source gives them in different places.

As to `CCN(CCNC(=O)C(CCCNC(=N)N)NC(=O)CC(=O)O)C(=O)Oc1ccc2c3c1OC1C(=O)CCC4C(C2)N(C)CCC314` (stereo not drawn) [Compound PC-6, [2-(2-Malonyl-5-guanidino-pentanoylamino)-ethyl]-ethyl-carbamic acid hydromorphone ester], the “Rate of HM formation, umols/h/umol trypsin Average ± sd” value in data set [1] (setting [11]) is reported as 262 ± 11 umols/h/umol trypsin.

As to `CCN(CCNC(=O)[C@H](CCCNC(=N)N)NC(C)=O)C(=O)Oc1ccc2c3c1OC1C(=O)CCC4C(C2)N(C)CCC314` (stereo partly drawn) [Compound PC-4, [2-((S)-2-Acetylamino-5-guanidino-pentanoylamino)-ethyl]-ethyl-carbamic acid hydromorphone ester], the “Cmax of HM in rat plasma” value in data set [2] (SBTI 0 mg/kg, n = 7) was determined as 7.7 ± 2.3 ng/mL; in data set [2] (SBTI 500 mg/kg, n = 4), 7.5 ± 2.1 ng/mL; in data set [3] (Compound 101 0 mg/kg, n = 7), 7.7 ± 2.3 ng/mL; in data set [3] (Compound 101 10 mg/kg, n = 4) it was 4.8 ± 1.4 ng/mL. Besides, the “Tmax of HM in rat plasma” value in data set [2] (SBTI 0 mg/kg, n = 7) is 2.3 h; in [2] (SBTI 500 mg/kg, n = 4), 6.5 h; in data set [3] (Compound 101 0 mg/kg, n = 7), 2.3 h; in [3] (Compound 101 10 mg/kg, n = 4), 6.0 h. The “Rate of HM formation, umols/h/umol trypsin Average ± sd” value in data set [1] (setting [11]) was 322 umols/h/umol trypsin and 243 ± 1 umols/h/umol trypsin; in [1] (With trypsin inhibitor 3,089 uM Compound 109), 3.27 ± 1.87 umols/h/umol trypsin.

In the case of `CCN(CCNC(=O)[C@H](CCCCN)NC(=O)CC(=O)O)C(=O)Oc1ccc2c3c1O[C@H]1C(=O)CC[C@H]4[C@@H](C2)N(C)CC[C@]314` [Compound PC-5, [2-((S)-2-malonylamino-4-amino-pentanoylamino)-ethyl]-ethyl-carbamic acid hydromorphone ester], the “Rate of HM formation, umols/h/umol trypsin Average ± sd” value in data set [1] (setting [11]) stood at 106 ± 2 umols/h/umol trypsin.

In the case of `CN(CCNC(=O)[C@@H](N)CCCNC(=N)N)C(=O)Oc1ccc2c3c1OC1C(=O)CCC4C(C2)N(C)CCC314` (stereo partly drawn) [Compound PC-2, [2-((S)-2-amino-5-guanidino-pentanoylamino)-ethyl]-methyl-carbamic acid hydromorphyl ester], the “Cmax of hydromorphone in rat plasma” value in [4] (SBTI 0 mg/kg) was 14.2 ± 2.6 ng/mL; in data set [4] (SBTI 500 mg/kg), 7.3 ± 3.5 ng/mL.

For `CC(=O)N[C@@H](CCCCN)C(=O)NCCN(C)C(=O)Oc1ccc2c3c1OC1C(=O)CCC4C(C2)N(C)CCC314` (stereo partly drawn) [Compound PC-3, (S)-2-Acetylamino-6-amino-hexanoic acid (2-methylamino-ethyl)-amide hydromorphone ester], the “Cmax of hydromorphone in rat plasma” value in [5] (SBTI 0 mg/kg) was found to be 9.0 ± 3.1 ng/mL; in data set [5] (SBTI 500 mg/kg), 2.3 ± 1.7 ng/mL. Also, the “Tmax of hydromorphone in rat plasma” value worked out at 2.3 h in data set [5] (SBTI 0 mg/kg) and 7.3 h in [5] (SBTI 500 mg/kg). For the same molecule, the “Cmax of HM in rat plasma” value in data set [6] (Compound 101 0 mg/kg) is listed as 9.0 ± 3.1 ng/mL; in [6] (Compound 101 10 mg/kg), 3.8 ± 2.9 ng/mL. The “Tmax of HM in rat plasma” value amounted to 2.3 h in data set [6] (Compound 101 0 mg/kg) and 3.5 h in data set [6] (Compound 101 10 mg/kg).

As to `CC(=O)NC(CCCNC(=N)N)C(=O)NCCN(C)C(=O)Oc1ccc2c3c1OC1C(=O)CCC4C(C2)N(C)CCC314` (stereo not drawn) [Compound PC-1, Hydromorphone 3-(N-methyl-N-(2-N′-acetylarginylamino)) ethylcarbamate], the “Cmax of hydromorphone in rat blood” value was 16.5 ± 5.3 ng/mL in data set [7] (SBTI 0 mg/kg); 8.9 ± 1.8 ng/mL in [7] (SBTI 10 mg/kg); 6.0 ± 4.0 ng/mL in data set [7] (SBTI 100 mg/kg); <5 ng/mL in [7] (SBTI 500 mg/kg); <5 ng/mL in data set [7] (SBTI 1000 mg/kg); 16.5 ± 5.3 ng/mL in [8] (BBSI 0 mg/kg, n = 4). For the same molecule, the “Cmax of hydromorphone in rat blood” value in data set [8] (BBSI 100 mg/kg, n = 3 (3 of the 4 rats)) is reported as 10.6 ± 5.9 ng/mL; in [8] (BBSI 100 mg/kg, n = 4), 18.7 ± 17.0 ng/mL. Also, the “Cmax of rat not included in n = 3 analysis” value in [8] (BBSI 100 mg/kg, individual rat, blood) is 43 ng/mL. Further, the “Cmax range of other rats” value in data set [8] (BBSI 100 mg/kg, the 3 other rats, blood) is 6.8 to 17 ng/mL. The “Rate of HM formation, umols/h/umol trypsin Average ± sd” value in [1] (setting [11]) was 230 ± 8 umols/h/umol trypsin. For the same molecule, the “Cmax of hydromorphone in rat plasma” value in data set [9] (OVA 0 mg/kg, SBTI 0 mg/kg) is 13.3 ± 3.7 ng/mL; in [9] (OVA 20 mg/kg, SBTI 0 mg/kg) it was 11.0 ± 5.4 ng/mL; in [9] (OVA 100 mg/kg, SBTI 0 mg/kg) it was 9.7 ± 3.1 ng/mL; in data set [9] (OVA 500 mg/kg, SBTI 0 mg/kg), 11.6 ± 2.5 ng/mL; in data set [9] (OVA 500 mg/kg, SBTI 500 mg/kg) it was 1.9 ± 0.9 ng/mL; in data set [9] (OVA 1000 mg/kg, SBTI 0 mg/kg), 10.3 ± 3.5 ng/mL. Also, the “plasma Tmax of hydromorphone” value in data set [9] (20 mg/kg Compound PC-1 alone) came to 2.3 h; in [9] (20 mg/kg Compound PC-1 with 500 mg/kg OVA and 500 mg/kg SBTI), 8.0 h.

B1: ovalbumin: Albumin from chicken egg white, used as a non-trypsin inhibitor protein control (protein, UniProt P01012 2-386, looked up)
Ovalbumin: GSIGAASMEFCFDVFKELKVHHANENIFYCPIAIMSALAMVYLGAKDSTRTQINKVVRFDKLPGFGDSIEAQCGTSVNVHSSLRDILNQITKPNDVYSFSLASRLYAEERYPILPEYLQCVKELYRGGLEPINFQTAADQARELINSWVESQTNGIIRNVLQPSSVDSQTAMVLVNAIVFKGLWEKAFKDEDTQAMPFRVTEQESKPVQMMYQIGLFRVASMASEKMKILELPFASGTMSMLVLLPDEVSGLEQLESIINFEKLTEWTSSNVMEERKIKVYLPRMKMEEKYNLTSVLMAMGITDVFSSSANLSGISSAESLKISQAVHAAHAEINEAGREVVGSAEAGVDAASVSEEFRADHPFLFCIKHIATNAVLFFGRCVSP
With B1, the “Effect on Compound PC-1's ability to release hydromorphone” value in data set [9] is reported as “does not significantly affect Compound PC-1's ability to release hydromorphone”.

B2: SBTI: trypsin inhibitor from Glycine max (soybean) (Catalog No. 93620, ˜10,000 units per mg, Sigma-Aldrich) (protein, UniProt P01070 25-205, looked up)
Trypsin inhibitor A: DFVLDNEGNPLENGGTYYILSDITAFGGIRAAPTGNERCPLTVVQSRNELDKGIGTIISSPYRIRFIAEGHPLSLKFDSFAVIMLCVGIPTEWSVVEDLPEGPAVKIGENKDAMDGWFRLERVSDDEFNNYKLVFCPQQAEDDKCGDIGISIDHDDGTRRLVVSKNKPLVVQFQKLDKESL
On to B2, for which the “Effect of SBTI on Compound PC-1's ability to release hydromorphone” value in [7] (rats PO, PC-1 20 mg/kg with 10, 100, 500 or 1000 mg/kg SBTI) is “attenuates Compound PC-1's ability to release hydromorphone in a dose-dependent manner that can approach approximately 100% attenuation at higher SBTI concentrations; also recorded: suppresses Cmaxand delays Tmax”. Moreover, in data set [2] (rats PO, PC-4 20 mg/kg with 500 mg/kg SBTI), the “Effect of SBTI on Compound PC-4's ability to release hydromorphone” value is reported as “attenuates Compound PC-4's ability to release hydromorphone, at least with respect to delaying Tmax”. Also, the “Effect of SBTI on Compound PC-2's ability to release hydromorphone” value in data set [4] (rats PO, PC-2 20 mg/kg with 500 mg/kg SBTI) was “attenuates Compound PC-2's ability to release hydromorphone, both with respect to suppressing Cmaxand delaying Tmax”. Moreover, the IC50 – broadly, the midpoint of a concentration-inhibition curve – in data set [10] stood at 270 nM. In addition, the “Effect of SBTI on Compound PC-3's ability to release hydromorphone” value in data set [5] (rats PO, PC-3 20 mg/kg with 500 mg/kg SBTI) was “attenuates Compound PC-3's ability to release hydromorphone, both with respect to suppressing Cmaxand delaying Tmax”. For the same molecule, in data set [9], the “Effect on Compound PC-1's ability to release hydromorphone” value was “suppresses Cmaxand delays Tmax of such hydromorphone in plasma, even in the presence of ovalbumin; also recorded: acting specifically by inhibiting trypsin rather than in a non-specific manner”.

(Values after US20110262360A1, “Compositions Comprising Enzyme-Cleavable Phenol-Modified Opioid Prodrugs and Inhibitors Thereof” (priority 2010, published 2011).)
